# Results from PMC8200971, “Design, Synthesis, Biological Evaluation and Silico Prediction of Novel Sinomenine Derivatives” (Molecules, 2021).
# Legend:
# [1] = tested on: Hek293 (human embryonic kidney cell lines); experiment: CCK8 cytotoxicity assay, normal cells; type: cell-based; details: Homo sapiens, HEK293, 60 h; for IC50: read-out: IC50 Hek293; for inhibition at 2.5 µM / inhibition at 25 µM: read-out: growth inhibition ratio (mean ± SD)
# Method: (§1) Cytotoxicity screens were performed to assess the in vitro anticancer activity of the synthesized sinomenine derivatives 6a–6l on the various cancer cell lines MCF-7, Hela, SW480, and A549, as well as on Hek293 as a normal cell line, at doses of 2.5 and 25 μM. The obtained inhibition ratios data were used to construct a heat map (Figure 3, Tables S1 and S2) in order to select compounds that exert cancer cell line-specific cytotoxicity. Then, the IC50 values of the promising compound were determined. Cisplatin was used as a reference standard. The antiproliferative activity was based on the evaluation of the percent viability using the CCK8 assay, which is a rapid and sensitive method for determining the number of viable cells in culture. In the presence of electronic coupling reagents, WST-8 can be reduced by a dehydrogenase in the mitochondria to produce a highly water-soluble orange-yellow formazan product. Its color is proportional to the proliferation of the number of viable cells and is related to cytotoxicity. Using a microplate reader to measure the OD value can indirectly reflect the number of living cells at 450 nm wavelength.
# (§2) To understand structure–function relationships, these selected compounds were subjected to subsequent analyses. All six compounds (6a and 6c–6g) were further examined to determine their IC50 concentrations on the previously mentioned cell lines, and their efficacy was compared to the reference drug cisplatin. For this, six compounds and cisplatin were evaluated on Hela, MCF-7, SW480, and A549, and on noncancerous Hek293 cell lines at various concentrations for 60 h. IC50 values were calculated (Table 2).
# (§3) The MCF-7 (human breast cancer cell lines), Hela (human cervical cancer cell lines), SW480 (human colon adenocarcinoma cell lines), A549 (human lung adenocarcinoma cell lines) and nontoxic normal cells Hek293 (human embryonic kidney cell lines) cells were used to measure the cytotoxicity of the 6a–6l. They were obtained from the Beijing Normal University (Beijing, China). The test cell lines were cultured in DMEM, IMDM, F12 and DMEM nutrient medium containing 10% heat-inactivated fetal bovine serum, […] and 100 units/mL penicillin in a humified, 5% (v/v) CO2 atmosphere at 37 °C.
# (§4) Cell viability was estimated using the CCK8 assay. Tumor cells ([…]) viz. MCF-7, Hela, SW480, A549 and nontoxic normal cells Hek293 were seeded in medium containing Corning® 96-well tissue culture plates at confluences of […], respectively, in Incucyte ZOOM. Fresh medium (100 μL) containing different concentrations of the test sample was added after 12 h of seeding. The microtiter plates were incubated at 37 °C in a humidified incubator with 5% CO2 for 60 h. Triplicates from each concentration were used. Negative control cells were incubated without sample and cisplatin as a positive control. At the end of treatment, the numbers of viable cells were determined by the CCK8 test. In brief, the media was removed from the 96 well plates and replaced with 100 μL of fresh culture medium with 10% CCK8 solution added to each well including the untreated controls. The 96 well plates were then incubated at 37 °C and 5% CO2 for 1–4 h. Then, the absorbance was measured at 450 nm using a BMG LABTECH®-POLAR star Omega microplate reader (Ortenberg, Germany) to determine the number of viable cells, and the percentage of viability was calculated as ((ODt- ODb/ODc- ODb)) × 100%, where ODt is the mean optical density of wells treated with the tested sample, ODc is the mean optical density of wells treated with DMSO and ODb is the mean optical density of PBS wells without cells. The relation between surviving cells and drug concentrations were plotted to get the survival curve of each tumor cell line after treatment with the specified compound. […]
# [2] = tested on: SW480 (human colon adenocarcinoma cell lines); experiment: CCK8 cytotoxicity assay; type: cell-based; details: Homo sapiens, SW480, 60 h; for IC50: read-out: IC50 SW480; for inhibition at 2.5 µM / inhibition at 25 µM: read-out: growth inhibition ratio (mean ± SD)
# Method: as §1, §2, §3, §4
# [3] = tested on: A549 (human lung adenocarcinoma cell lines); experiment: CCK8 cytotoxicity assay; type: cell-based; details: Homo sapiens, A549, 60 h; for IC50: read-out: IC50 A549; for inhibition at 2.5 µM / inhibition at 25 µM: read-out: growth inhibition ratio (mean ± SD)
# Method: as §1, §2, §3, §4
# [4] = tested on: MCF-7 (human breast cancer cell lines); experiment: CCK8 cytotoxicity assay; type: cell-based; details: Homo sapiens, MCF7, 60 h; for IC50: read-out: IC50 MCF-7; for inhibition at 2.5 µM / inhibition at 25 µM: read-out: growth inhibition ratio (mean ± SD)
# Method: as §1, §2, §3, §4
# [5] = tested on: Hela (human cervical cancer cell lines); experiment: CCK8 cytotoxicity assay; type: cell-based; details: Homo sapiens, HeLa, 60 h; for IC50: read-out: IC50 Hela; for inhibition at 2.5 µM / inhibition at 25 µM: read-out: growth inhibition ratio (mean ± SD)
# Method: as §1, §2, §3, §4
Compound,IC50 [1] [µM],inhibition at 2.5 µM [1] [%],inhibition at 25 µM [1] [%],IC50 [2] [µM],inhibition at 2.5 µM [2] [%],inhibition at 25 µM [2] [%],IC50 [3] [µM],inhibition at 2.5 µM [3] [%],inhibition at 25 µM [3] [%],IC50 [4] [µM],inhibition at 2.5 µM [4] [%],inhibition at 25 µM [4] [%],IC50 [5] [µM],inhibition at 2.5 µM [5] [%],inhibition at 25 µM [5] [%],melting point [°C]
"COC1=C[C@@H]2[C@@H]3Cc4c(CN5CCCC5)cc(OC)c(OC(=O)Cc5ccc(Cl)cc5)c4[C@]2(CCN3C)CC1=O [6a, (4bR,8aS,9S)-3,7-dimethoxy-11-methyl-6-oxo-1-(pyrrolidin-1-ylmethyl)-6,8a,9,10-tetrahydro-5H-9,4b-(epiminoethano)phenanthren-4-yl 2-(4-chlorophenyl)acetate]",13 ± 0.62,17.9 ± 1.86,61.1 ± 4.71,14.94 ± 0.06,12.9 ± 6.52,82.3 ± 4.36,> 25,3.41 ± 0.82,37.4 ± 0.39,14.3 ± 0.83,0,85.3 ± 1.62,11.5 ± 1.04,7.81 ± 5.42,88.49 ± 0.67,162 to 165
"COC1=C[C@@H]2[C@@H]3Cc4c(CN5CCCC5)cc(OC)c(OC(=O)Cc5ccc(OC)c(OC)c5)c4[C@]2(CCN3C)CC1=O [6b, (4bR,8aS,9S)-3,7-dimethoxy-11-methyl-6-oxo-1-(pyrrolidin-1-ylmethyl)-6,8a,9,10-tetrahydro-5H-9,4b-(epiminoethano)phenanthren-4-yl 2-(3,4-dimethoxyphenyl)acetate]",,0.66 ± 1.14,45.9 ± 1.35,,22.9 ± 6.49,29.5 ± 11.2,,0,30.9 ± 0.32,,3.63 ± 3.16,2.7 ± 4.67,,2.03 ± 2.29,11.5 ± 4.88,80 to 83
"COC1=C[C@@H]2[C@@H]3Cc4c(CN5CCCC5)cc(OC)c(OC(=O)Cc5ccccc5Cl)c4[C@]2(CCN3C)CC1=O [6c, (4bR,8aS,9S)-3,7-dimethoxy-11-methyl-6-oxo-1-(pyrrolidin-1-ylmethyl)-6,8a,9,10-tetrahydro-5H-9,4b-(epiminoethano)phenanthren-4-yl 2-(2-chlorophenyl)acetate]",6.52 ± 0.19,13.8 ± 2.27,54.6 ± 2.29,> 25,28.3 ± 6.91,58.4 ± 7.58,18.7 ± 0.7,16.3 ± 0.63,49.4 ± 0.59,> 25,0,42 ± 3.02,> 25,3.05 ± 3.91,53.5 ± 2.45,79 to 83
"COC1=C[C@@H]2[C@@H]3Cc4c(CN5CCCC5)cc(OC)c(OC(=O)Cc5ccc(Cl)cc5Cl)c4[C@]2(CCN3C)CC1=O [6d, (4bR,8aS,9S)-3,7-dimethoxy-11-methyl-6-oxo-1-(pyrrolidin-1-ylmethyl)-6,8a,9,10-tetrahydro-5H-9,4b-(epiminoethano)phenanthren-4-yl 2-(2,4-dichlorophenyl)acetate]",3.46 ± 0.02,42.6 ± 0.84,84.6 ± 4.34,6.08 ± 0.28,29.1 ± 6.92,94.2 ± 3.21,11.6 ± 1.61,29.59 ± 0.16,93.02 ± 0.2,5.73 ± 0.36,0,88.6 ± 2.73,8.2 ± 0.52,10.3 ± 4.44,93.1 ± 0.17,82 to 86
"COC1=C[C@@H]2[C@@H]3Cc4c(CN5CCCC5)cc(OC)c(OC(=O)Cc5cccc(Cl)c5)c4[C@]2(CCN3C)CC1=O [6e, (4bR,8aS,9S)-3,7-dimethoxy-11-methyl-6-oxo-1-(pyrrolidin-1-ylmethyl)-6,8a,9,10-tetrahydro-5H-9,4b-(epiminoethano)phenanthren-4-yl 2-(3-chlorophenyl)acetate]",16.6 ± 0.64,14.4 ± 2.54,63.3 ± 11.4,> 25,29.4 ± 7.71,61 ± 7.14,17.9 ± 0.74,25.6 ± 1,61.06 ± 0.13,14.9 ± 0.15,6.92 ± 2.62,77.85 ± 0.45,13.3 ± 0.95,3.21 ± 2.37,80.9 ± 2.05,68 to 72
"COC1=C[C@@H]2[C@@H]3Cc4c(CN5CCCC5)cc(OC)c(OC(=O)Cc5ccccc5C)c4[C@]2(CCN3C)CC1=O [6f, (4bR,8aS,9S)-3,7-dimethoxy-11-methyl-6-oxo-1-(pyrrolidin-1-ylmethyl)-6,8a,9,10-tetrahydro-5H-9,4b-(epiminoethano)phenanthren-4-yl 2-(o-tolyl)acetate]",10.1 ± 0.42,16.8 ± 2.39,64.3 ± 14.6,> 25,20.8 ± 5.63,55.7 ± 6.94,25.1 ± 1.72,25 ± 1.05,57.09 ± 0.06,> 25,0,31.4 ± 3.72,> 25,7.82 ± 4.1,58.7 ± 2.64,72 to 75
"COC1=C[C@@H]2[C@@H]3Cc4c(CN5CCCC5)cc(OC)c(OC(=O)Cc5ccc(Cl)c(Cl)c5)c4[C@]2(CCN3C)CC1=O [6g, (4bR,8aS,9S)-3,7-dimethoxy-11-methyl-6-oxo-1-(pyrrolidin-1-ylmethyl)-6,8a,9,10-tetrahydro-5H-9,4b-(epiminoethano)phenanthren-4-yl 2-(3,4-dichlorophenyl)acetate]",4.71 ± 0.48,9.72 ± 1.96,59.9 ± 16.9,> 25,11.8 ± 7.5,56 ± 5.88,> 25,20.3 ± 0.78,43.9 ± 1.11,> 25,6.59 ± 4.98,34.6 ± 2.06,11.9 ± 0.6,35.3 ± 4.37,93.85 ± 0.2,160 to 164
"COC1=C[C@@H]2[C@@H]3Cc4c(CN5CCCC5)cc(OC)c(OC(=O)Cc5ccccc5)c4[C@]2(CCN3C)CC1=O [6h, (4bR,8aS,9S)-3,7-dimethoxy-11-methyl-6-oxo-1-(pyrrolidin-1-ylmethyl)-6,8a,9,10-tetrahydro-5H-9,4b-(epiminoethano)phenanthren-4-yl 2-phenylacetate]",,17.4 ± 1.49,46 ± 22.4,,28.2 ± 10.3,37.8 ± 9.83,,20.6 ± 0.77,52.3 ± 0.76,,5.79 ± 10,0,,11.2 ± 10,21.2 ± 4.4,165 to 168
